According to patent US20220062291A1, “COMPOSITIONS AND METHODS OF TREATING CANCERS BY ADMINISTERING A PHENOTHIAZINE-RELATED DRUG THAT ACTIVATES PROTEIN PHOSPHATASE 2A (PP2A) WITH REDUCED INHIBITORY ACTIVITY TARGETED TO THE DOPAMINE D2 RECEPTOR AND ACCOMPANYING TOXICITY” (DANA-FARBER CANCER INSTITUTE, INC., priority 2018, published 2022):

Columns and labels:
[1] = target: T1, PP2A subunits in KOPT-K1 cell lysates (Homo sapiens, UniProt P30153+P67775+Q16537); experiment: Cellular thermal shift assay (CETSA), PP2A subunits; assay type: binding; conditions: PPZ at 10 μM, one hour
T1 construct: are endogenously expressed by KOPTK1 cells; endogenous in cells; host or cells: KOPT-K1 T-ALL cells / lysates
Description: The cell lysates were then ultra-centrifuged to precipitate the aggregated pool of the protein, followed by quantification of the remaining soluble protein fraction by immunoblotting with antibodies specific to each of the PP2A subunits.
A similar experiment was set up to examine target engagement specificity of iPAP1 to PP2A subunits in KOPT-K1 cells (FIG. 18G-FIG. 18L). […] A western blot of the KOPT-K1 cell lysates is illustrated in FIG. 19B.

[2] = target: T2, PP2A (purified PPP2R1A, PPP2CA and PPP2R5E subunits) (Homo sapiens, UniProt P30153+P67775+Q16537); experiment: PP2A Immunoprecipitation Phosphatase Assay with purified subunits; assay type: biochemical
T2 construct: made in house; host or cells: Hi5 insect cells (baculovirus, pAC8 vectors; virus produced in Sf9)
Method: The data is presented as mean±s.d. (n=3, biological replicates). *P<0.05 by student's t-test.
Phosphatase activity of PP2A was measured using the PP2A Immunoprecipitation Phosphatase Assay Kit (Merck Millipore®) (FIG. 21A-FIG. 21B). […] The proteins were subsequently incubated with protein A agarose slurry and 4 μg of anti-PPP2CA antibody (Merck Millipore®, #05-421, clone 1D6) at 4° C. with constant rocking for one hour. Agarose-bound immune complexes were collected, then washed with 700 μl TBS (3 times) and 500 μl Ser/Thr buffer (final wash), before resuspending them in 20 μl Ser/Thr buffer. A phosphopeptide (amino acid sequence: K-R-pT-I-R-R) was added as a substrate for PPP2CA, and samples were incubated at 30° C. in a shaking incubator for 10 minutes. Supernatants (25 μl) were then transferred onto 96-well plate, and released phosphate was measured by adding 100 μl malachite green phosphate detection solution. Absorbance was read by SpectraMax® M5 Multi-Mode Microplate Reader (Molecular Devices LLC) at 650 nm. Phosphate concentrations were calculated from a standard curve generated from serial dilutions of standard phosphate solution (0-2,000 pmol).

KOPT-K1 cells = experiment: Microtubule and chromatin staining of cytospins; assay type: cell-based, human; conditions: 24 hours
[3] = system: KOPT-K1 cells with PP2A subunit inactivation; experiment: Drug sensitivity of KOPT-K1 sublines with CRISPR-Cas9 PP2A subunit knockout; assay type: cell-based, human; conditions: 72 hours
Method: Two gRNAs with different target sequences were designed for each subunit (#1 and #2). Control gRNAs target luciferase gene. […] Data are presented as means±s.d. (n=3-5, biological replicates). ***P<0.001 by Student's t-test (FIG. 3A).
SMAP sensitivity in KOPT-K1 cells was measured after PP2A subunit inactivation. Only each subunit of PP2A was knocked out by CRISPR-Cas9 with unique gRNAs. […] Two gRNAs with different target sequences were designed for each subunit (#1 and #2). Control gRNAs target luciferase gene. Data are presented as means±s.d. (n=3-5, biological replicates). ***P<0.001 by Student's t-test (FIG. 3B).
To identify the subunits of PP2A that are essential for the antitumor activity of iPAP1, CRISPR-Cas9 was used to establish a series of sublines of KOPT-K1 T-ALL cells, each lacking one of the 19 specific PP2A subunits (FIG.1A-FIG. 2), and to examine their sensitivity to iPAP1-induced growth inhibition.
With this panel of PP2A subunit knockout cells in hand, we analyzed the PP2A subunits required for growth suppression by SMAPs, another class of allosteric activators of PP2A (Gutierrez et al., J. Clin. Invest. 124:644-655 (2014); Sangodkar et al., J. Clin. Invest. 127:2081-2090 (2017)). […] Both the PPP2R5E and PPP2R2A regulatory subunits of PP2A were among the most highly expressed in a series of 16 different T-ALL cell lines (FIG. 5A). Thus, the assembly of structurally different heterotrimeric PP2A complexes induced with either iPAP1 or SMAP cannot be attributed to imbalances in cellular expression levels of individual PP2A subunits, but likely stems from differences in the allosteric alterations of the A subunit protein resulting from the binding of these two classes of small molecules, which have different chemical structures.

[4] = system: α and β tubulins in KOPT-K1 cell lysates; experiment: Cellular thermal shift assay (CETSA), tubulins; assay type: binding, human
Method: Data are presented as means±s.d. (n=3, biological replicates). The quantitation of levels α and β tubulins detected by specific antibodies was determined using western blotting (FIG. 19E). Alpha (α) and tubulin levels were quantified during CETSA by Image J software of KOPT-K1 cell lysates treated or untreated with iPAP1 at various temperatures for 3 minutes. […] The CETSA curves for KOPT-K1 cell lysates with and without the addition of iPAP1 after incubation for 3 minutes are shown in FIG. 19F and FIG. 19G. […] Data are presented as means±s.d. (n=3, biological replicates). The quantitation of levels α and β tubulins detected by specific antibodies using western blotting (FIG. 19H). α and β tubulin levels were quantified during CETSA by Image J software of KOPT-K1 cell lysates treated or untreated with iPAP1 at various temperature for 3 minutes.

T2 sequence (P30153 whole entry): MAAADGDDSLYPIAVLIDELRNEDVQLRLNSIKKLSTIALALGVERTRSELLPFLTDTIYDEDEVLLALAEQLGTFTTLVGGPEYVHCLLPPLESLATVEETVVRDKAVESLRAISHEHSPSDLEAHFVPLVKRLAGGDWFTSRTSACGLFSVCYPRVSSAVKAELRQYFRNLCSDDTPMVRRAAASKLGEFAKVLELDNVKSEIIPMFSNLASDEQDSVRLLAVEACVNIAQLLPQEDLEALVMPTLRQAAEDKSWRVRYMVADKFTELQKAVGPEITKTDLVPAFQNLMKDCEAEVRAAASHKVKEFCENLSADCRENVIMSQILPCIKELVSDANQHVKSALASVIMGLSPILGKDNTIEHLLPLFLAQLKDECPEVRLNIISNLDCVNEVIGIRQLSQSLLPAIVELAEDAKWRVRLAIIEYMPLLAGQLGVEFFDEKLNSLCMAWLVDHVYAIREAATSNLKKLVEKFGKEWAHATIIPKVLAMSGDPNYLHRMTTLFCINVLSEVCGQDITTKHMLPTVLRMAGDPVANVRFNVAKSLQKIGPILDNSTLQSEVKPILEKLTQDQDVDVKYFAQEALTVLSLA
T2 sequence (P67775 whole entry): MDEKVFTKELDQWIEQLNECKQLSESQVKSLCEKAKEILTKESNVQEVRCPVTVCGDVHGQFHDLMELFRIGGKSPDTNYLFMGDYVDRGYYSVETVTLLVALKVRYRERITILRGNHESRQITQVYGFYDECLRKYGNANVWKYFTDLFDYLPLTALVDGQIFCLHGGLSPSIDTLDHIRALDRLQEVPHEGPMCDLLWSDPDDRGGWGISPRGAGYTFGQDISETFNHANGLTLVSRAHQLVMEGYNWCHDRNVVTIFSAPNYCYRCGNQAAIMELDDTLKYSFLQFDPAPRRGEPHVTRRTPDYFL
T2 sequence (Q16537 whole entry): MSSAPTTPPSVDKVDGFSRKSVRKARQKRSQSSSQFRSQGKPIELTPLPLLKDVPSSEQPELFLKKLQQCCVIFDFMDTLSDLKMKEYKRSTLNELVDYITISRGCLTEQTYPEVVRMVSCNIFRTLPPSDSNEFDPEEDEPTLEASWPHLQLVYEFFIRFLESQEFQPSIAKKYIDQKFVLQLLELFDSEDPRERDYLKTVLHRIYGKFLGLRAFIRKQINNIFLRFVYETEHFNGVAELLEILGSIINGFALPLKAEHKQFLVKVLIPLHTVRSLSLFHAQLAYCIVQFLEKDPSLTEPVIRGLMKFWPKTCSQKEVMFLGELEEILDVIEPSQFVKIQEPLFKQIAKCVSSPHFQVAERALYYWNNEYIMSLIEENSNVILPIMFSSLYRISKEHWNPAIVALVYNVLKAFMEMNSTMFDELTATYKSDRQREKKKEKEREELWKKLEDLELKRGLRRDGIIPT
T1 sequence (P30153 whole entry): as the sequence (P30153 whole entry) above
T1 sequence (P67775 whole entry): as the sequence (P67775 whole entry) above
T1 sequence (Q16537 whole entry): as the sequence (Q16537 whole entry) above

SMILES	thermal stabilization of PP2A subunits [1]	phosphatase activity of PP2A assembled from purified PPP2R1A, PPP2CA and PPP2R5E ([2]; one hour at room temperature)	mitotic and microtubule phenotype (KOPT-K1 cells; 10 μM and 20 μM)	PP2A subunits whose knockout gives resistance ([3]; 5 μM)	protection of α or β tubulins from thermal degradation [4]	PP2A activated at lower molar concentrations than PPZ ([2]; purified subunits) [fold]	equivalent PP2A activation activity at lower concentrations compared to PPZ ([2]; purified subunits 200 ng each, one hour at room temperature) [times]	mitotic and microtubule phenotype (KOPT-K1 cells; 2 μM and 5 μM)	PP2A subunits whose knockout gives resistance ([3]; 0.5 μM)
OCCN1CCN(CCCN2c3ccccc3Sc3ccc(Cl)cc32)CC1 [PPZ, perphenazine, reference compound]	significantly enhanced stabilization of PPP2R1A, PPP2CA and PPP2R5E	Phosphatase activity increased with increasing concentrations of PPZ	prometaphase arrest at the monopolarity stage	resistance to PPZ treatment only when the specific subunits PPP2R1A, PPP2CA or PPP2R5E were knocked out	did not protect α or β tubulins from thermal degradation				
COc1ccc(C(=O)N2c3ccccc3Sc3ccc(Cl)cc32)cc1 [iPAP1]	protection of the PP2A subunits from thermal degradation similar to PPZ	the phosphatase activity of PP2A was increased upon iPAP1 treatment			did not protect α or β tubulins from thermal degradation	~10	~10	prometaphase arrest at the monopolarity stage	resistance to iPAP1 treatment only when the PPP2R1A, PPP2CA or PPP2R5E subunits were disrupted
